Data published in the supplement of paper PMC10307832.

How the values were obtained:
Assay in all cases: relative viability (nuclei count vs DMSO), 5 days (fraction); higher = more cells survive
KIN001-266 + Pictilisib = compound: CCN1CCC(CC1)N2C=C(N=N2)CNC3=CC4=C(C(=CN=C4C(=C3)Cl)C#N)NC5=CC(=C(C=C5)F)Cl [KIN001-266] + CS(=O)(=O)N1CCN(Cc2cc3nc(-c4cccc5[nH]ncc45)nc(N4CCOCC4)c3s2)CC1 [Pictilisib] (partner 1 µM)
Method in brief: (§1)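 Lung cancer cell lines were pin-tool dosed in 1536-well plates on the day after seeding, with either a lone drug or a fixed anchor-drug dose plus five library-drug doses (not always all listed) in √10 steps. Nuclei were counted on 4× images after 5 days. Relative viability is the ratio of treated-well to vehicle-well nuclei counts, with each value a median of duplicate plates.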

KIN001-266 + Crizotinib = compound: CCN1CCC(CC1)N2C=C(N=N2)CNC3=CC4=C(C(=CN=C4C(=C3)Cl)C#N)NC5=CC(=C(C=C5)F)Cl [KIN001-266] + C[C@@H](Oc1cc(-c2cnn(C3CCNCC3)c2)cnc1N)c1c(Cl)ccc(F)c1Cl [Crizotinib] (partner 1 µM)
Method in brief: as §1

KIN001-266 + Dasatinib = compound: CCN1CCC(CC1)N2C=C(N=N2)CNC3=CC4=C(C(=CN=C4C(=C3)Cl)C#N)NC5=CC(=C(C=C5)F)Cl [KIN001-266] + Cc1nc(Nc2ncc(C(=O)Nc3c(C)cccc3Cl)s2)cc(N2CCN(CCO)CC2)n1 [Dasatinib] (partner 0.075 µM)
Method in brief: as §1

KIN001-266 + Vorinostat = compound: CCN1CCC(CC1)N2C=C(N=N2)CNC3=CC4=C(C(=CN=C4C(=C3)Cl)C#N)NC5=CC(=C(C=C5)F)Cl [KIN001-266] + O=C(CCCCCCC(=O)Nc1ccccc1)NO [Vorinostat] (partner 1 µM)
Method in brief: as §1

Row | Cell Line | relative viability (KIN001-266 + Pictilisib; first compound 0.08 µM) | relative viability (KIN001-266 + Pictilisib; first compound 0.253 µM) | relative viability (KIN001-266 + Pictilisib; first compound 0.8 µM) | relative viability (KIN001-266 + Pictilisib; first compound 2.53 µM) | relative viability (KIN001-266 + Pictilisib; first compound 8 µM) | relative viability (KIN001-266 + Crizotinib; first compound 0.08 µM) | relative viability (KIN001-266 + Crizotinib; first compound 0.253 µM) | relative viability (KIN001-266 + Crizotinib; first compound 0.8 µM) | relative viability (KIN001-266 + Crizotinib; first compound 2.53 µM) | relative viability (KIN001-266 + Crizotinib; first compound 8 µM) | relative viability (KIN001-266 + Dasatinib; first compound 0.08 µM) | relative viability (KIN001-266 + Dasatinib; first compound 0.253 µM) | relative viability (KIN001-266 + Dasatinib; first compound 0.8 µM) | relative viability (KIN001-266 + Dasatinib; first compound 2.53 µM) | relative viability (KIN001-266 + Dasatinib; first compound 8 µM) | relative viability (KIN001-266 + Vorinostat; first compound 0.08 µM) | relative viability (KIN001-266 + Vorinostat; first compound 0.253 µM) | relative viability (KIN001-266 + Vorinostat; first compound 0.8 µM) | relative viability (KIN001-266 + Vorinostat; first compound 2.53 µM) | relative viability (KIN001-266 + Vorinostat; first compound 8 µM)
1 | H3255 | 0.523 | 0.518 | 0.49 | 0.516 | 0.341 | 0.883 | 0.874 | 0.777 | 0.811 | 0.71 | 0.359 | 0.334 | 0.288 | 0.404 | 0.346 | 0.882 | 0.839 | 0.792 | 0.721 | 0.836
2 | HARA | 0.515 | 0.466 | 0.507 | 0.444 | 0.291 | 1.07 | 1.24 | 0.894 | 0.967 | 0.782 | 0.26 | 0.256 | 0.231 | 0.264 | 0.281 | 0.544 | 0.603 | 0.481 | 0.462 | 0.502
3 | HCC-15 | 0.769 | 0.765 | 0.594 | 0.674 | 0.472 | 0.778 | 0.821 | 0.738 | 0.626 | 0.565 | 0.683 | 0.592 | 0.566 | 0.596 | 0.448 | 0.871 | 0.932 | 0.842 | 0.747 | 0.616
4 | HCC-44 | 0.657 | 1.76 | 0.593 | 0.636 | 0.57 | 0.812 | 0.785 | 0.754 | 0.797 | 0.743 | – | – | – | – | – | 1.15 | 1.09 | 1.04 | 1.14 | 1.11
